The results in this text go back to patent US20240199546A1, “INHIBITORS OF SOLUTE CARRIER FAMILY 6A MEMBER 19 (SLC6A19) AND METHODS OF USE THEREOF” (Maze Therapeutics, Inc., priority 2022, published 2024).

Where only a bound is given, the exact number is not on record here.

The target of assay [1] is T1, human SLC6A19 and TMEM27 (Homo sapiens, UniProt Q695T7).
T1 construct: expressed in transfected cells
T1 sequence (Q695T7 1-634): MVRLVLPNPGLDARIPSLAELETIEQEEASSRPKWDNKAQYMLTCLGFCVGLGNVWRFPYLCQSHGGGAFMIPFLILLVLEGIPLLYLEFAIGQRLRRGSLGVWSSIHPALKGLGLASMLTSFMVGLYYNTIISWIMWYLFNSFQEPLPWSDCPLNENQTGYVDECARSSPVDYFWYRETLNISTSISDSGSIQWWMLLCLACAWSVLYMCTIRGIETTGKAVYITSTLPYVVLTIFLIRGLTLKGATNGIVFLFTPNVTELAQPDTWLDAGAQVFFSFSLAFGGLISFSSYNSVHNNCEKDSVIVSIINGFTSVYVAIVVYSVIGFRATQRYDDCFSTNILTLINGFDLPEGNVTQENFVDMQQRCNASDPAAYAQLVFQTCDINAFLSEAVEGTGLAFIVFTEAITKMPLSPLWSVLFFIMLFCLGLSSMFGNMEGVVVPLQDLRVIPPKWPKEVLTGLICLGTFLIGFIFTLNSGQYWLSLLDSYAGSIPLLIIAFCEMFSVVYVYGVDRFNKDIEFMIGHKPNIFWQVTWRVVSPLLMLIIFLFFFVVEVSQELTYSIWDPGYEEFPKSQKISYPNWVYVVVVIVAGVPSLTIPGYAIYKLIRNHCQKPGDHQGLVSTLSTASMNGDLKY
T1 sequence (Q9HBJ8 15-222 partner): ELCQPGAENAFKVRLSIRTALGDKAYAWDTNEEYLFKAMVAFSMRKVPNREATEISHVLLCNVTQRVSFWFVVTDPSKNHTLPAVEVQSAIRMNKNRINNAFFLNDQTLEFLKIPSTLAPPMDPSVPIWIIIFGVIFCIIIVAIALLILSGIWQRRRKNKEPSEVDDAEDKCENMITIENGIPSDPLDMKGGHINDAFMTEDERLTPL
As to the kind of experiment: Radiolabelled (3H) leucine uptake in CHO cells with doxycycline-inducible expression of human SLC6A19 and TMEM27 (Example B-1). It is filed as cell-based. Particulars: CHO cells with doxycycline-inducible expression of human SLC6A19 and TMEM27, read-out: SLC6A19_Radioligand Uptake Assay IC50. In a few lines:
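CHO cells were induced with doxycycline for 18 h at 37 °C, washed in HBSS, then exposed to compounds for 1 h: 8-point, 3-fold dilutions in duplicate, 0.5% DMSO final. Uptake measured by scintillation counting after 2 h shaking. Activity normalized with positive control as 0% and DMSO as 100%.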

Assay [2] addresses T1, human SLC6A19 and TMEM27. As to the kind of experiment: 13C6,15N-isoleucine uptake in CHO cells with doxycycline-inducible expression of human SLC6A19 and TMEM27, RapidFire mass spectrometry (Example B-2). The following applies: read-out: SLC6A19_RapidFire Uptake Assay IC50. It is filed as cell-based. In a few lines:
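CHO cells induced overnight with doxycycline to express human SLC6A19 plus TMEM27; 20 min preincubation with compound (10-point 2-fold series, duplicate) at 37 °C in HEPES buffer pH 7.2, then 20 min with 13C6,15N-isoleucine. Intracellular label quantified by RapidFire MS against 13C-leucine standard; positive control defined 100% inhibition.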

For orientation: IC50 means the concentration that inhibits the measured activity by half.

`CC1(C(=O)NCc2cc3cc(Cl)c(OCc4ccco4)cc3[nH]2)CC1` [Compound 66, N-((5-chloro-6-(furan-2-ylmethoxy)-1H-indol-2-yl)methyl)-1-methylcyclopropane-1-carboxamide]: the half-inhibitory concentration (IC50) came out at 70 nM on human SLC6A19 and TMEM27 [1]; 27 nM at human SLC6A19 and TMEM27 [2]. As to `CC1(C(=O)NCc2cc3ccc(NCc4ccon4)cc3[nH]2)CC1` [Compound 152, N-((6-((isoxazol-3-ylmethyl)amino)-1H-indol-2-yl)methyl)-1-methylcyclopropane-1-carboxamide], the IC50 at human SLC6A19 and TMEM27 [1] amounted to 531 nM; at human SLC6A19 and TMEM27 [2], 2060 nM. For `CC1(C(=O)NCc2cc3cc(Cl)c(NCc4ccon4)cc3[nH]2)CC1` [Compound 151, N-((5-chloro-6-((isoxazol-3-ylmethyl)amino)-1H-indol-2-yl)methyl)-1-methylcyclopropane-1-carboxamide], in that order: 182 nM and 173 nM. For `CCC(=O)NCc1cc2cc(C)c(OCc3cscn3)cc2[nH]1` [Compound 529, N-((5-methyl-6-(thiazol-4-ylmethoxy)-1H-indol-2-yl)methyl)propionamide], in that order: 192 nM and 154 nM. For `CN(Cc1cn[nH]c1)C(=O)NCc1cc2ccc(OCc3ccon3)cc2[nH]1` [Compound 627, 1-((1H-pyrazol-4-yl)methyl)-3-((6-(isoxazol-3-ylmethoxy)-1H-indol-2-yl)methyl)-1-methylurea], in that order: > 8730 nM and 12100 nM.

With `Cc1cc2cc(CNC(=O)N3CCC3)[nH]c2cc1OCc1cscn1` [Compound 528, N-((5-methyl-6-(thiazol-4-ylmethoxy)-1H-indol-2-yl)methyl)azetidine-1-carboxamide], the IC50 at human SLC6A19 and TMEM27 [1] was found to be 278 nM; at human SLC6A19 and TMEM27 [2] it was 292 nM.

Consider `CC1(C(=O)NCc2cc3cc(Cl)c(OCc4cncs4)cc3[nH]2)CC1` [Compound 177, N-((5-chloro-6-(thiazol-5-ylmethoxy)-1H-indol-2-yl)methyl)-1-methylcyclopropane-1-carboxamide], for which the 50% inhibitory concentration (IC50) at human SLC6A19 and TMEM27 [1] turned out to be 307 nM; at human SLC6A19 and TMEM27 [2], 275 nM. Consider `CC(C)(C)C(=O)NCc1cc2cc(Cl)c(OCc3ccon3)cc2[nH]1` [Compound 493, N-((5-chloro-6-(isoxazol-3-ylmethoxy)-1H-indol-2-yl)methyl)pivalamide], for which the IC50 at human SLC6A19 and TMEM27 [1] amounted to 1440 nM; on human SLC6A19 and TMEM27 [2], 1140 nM. For `CN(C(=O)NCc1cc2cc(Cl)c(OCc3ccon3)cc2[nH]1)C1CC1` [Compound 379, 3-((5-chloro-6-(isoxazol-3-ylmethoxy)-1H-indol-2-yl)methyl)-1-cyclopropyl-1-methylurea], in that order: 382 nM and 240 nM. For `CC1(C(=O)NCc2cc3cc(Cl)c(OCc4ccccn4)cc3[nH]2)CC1` [Compound 41, N-((5-chloro-6-(pyridin-2-ylmethoxy)-1H-indol-2-yl)methyl)-1-methylcyclopropane-1-carboxamide], in that order: 261 nM and 71 nM. For `CC(C)(C)C(=O)NCc1cc2cc(Cl)c(OCc3cscn3)cc2[nH]1` [Compound 432, N-((5-chloro-6-(thiazol-4-ylmethoxy)-1H-indol-2-yl)methyl)pivalamide], in that order: 384 nM and 253 nM. `O=C(NCc1cc2cc(Cl)c(OCc3cscn3)cc2[nH]1)N1CCCC1` [Compound 82, N-((5-chloro-6-(thiazol-4-ylmethoxy)-1H-indol-2-yl)methyl)pyrrolidine-1-carboxamide]: the IC50 came to 149 nM at human SLC6A19 and TMEM27 [1]; 45 nM on human SLC6A19 and TMEM27 [2]. As for `CC1(C(=O)NCc2cc3cc(Cl)c(CCc4cscn4)cc3[nH]2)CC1` [Compound 149, N-((5-chloro-6-(2-(thiazol-4-yl)ethyl)-1H-indol-2-yl)methyl)-1-methylcyclopropane-1-carboxamide], the concentration for half-maximal inhibition (IC50) came out at 85 nM at human SLC6A19 and TMEM27 [1]; 34 nM at human SLC6A19 and TMEM27 [2]. For `O=C(NCc1cc2cc(C(F)(F)F)c(OCc3cscn3)cc2[nH]1)N1CCCC1` [Compound 479, N-((6-(thiazol-4-ylmethoxy)-5-(trifluoromethyl)-1H-indol-2-yl)methyl)pyrrolidine-1-carboxamide], in that order: 1670 nM and 545 nM. For `CCC(=O)NCc1cc2cc(Cl)c(OCc3ccon3)cc2[nH]1` [Compound 129, N-((5-chloro-6-(isoxazol-3-ylmethoxy)-1H-indol-2-yl)methyl)propionamide], in that order: 80 nM and 44 nM. For `O=C(NCc1cc2cc(F)c(OCc3cscn3)cc2[nH]1)C1CC1` [Compound 136, N-((5-fluoro-6-(thiazol-4-ylmethoxy)-1H-indol-2-yl)methyl)cyclopropanecarboxamide], in that order: 83 nM and 38 nM.

As for `O=C(NCc1cc2cc(F)c(OCc3ccon3)cc2[nH]1)C1(F)CC1` [Compound 233, 1-fluoro-N-((5-fluoro-6-(isoxazol-3-ylmethoxy)-1H-indol-2-yl)methyl)cyclopropane-1-carboxamide], the 50% inhibitory concentration (IC50) at human SLC6A19 and TMEM27 [1] is 112 nM; on human SLC6A19 and TMEM27 [2] it was 57 nM. For `O=C(NCc1cc2cc(F)c(OCc3cccc(F)n3)cc2[nH]1)C1CC1` [Compound 497, N-((5-fluoro-6-((6-fluoropyridin-2-yl)methoxy)-1H-indol-2-yl)methyl)cyclopropanecarboxamide], in that order: 197 nM and 184 nM.

For the molecule `CC1(C(=O)NCc2cc3cc(Cl)c(OCc4ccc5ccoc5c4)cc3[nH]2)CC1` [Compound 461, N-((6-(benzofuran-6-ylmethoxy)-5-chloro-1H-indol-2-yl)methyl)-1-methylcyclopropane-1-carboxamide], the half-inhibitory concentration (IC50) stood at 2700 nM at human SLC6A19 and TMEM27 [1]; 989 nM at human SLC6A19 and TMEM27 [2]. For `Cc1cc(COc2cc3[nH]c(CNC(=O)C4(C(F)(F)F)CC4)cc3cc2Cl)no1` [Compound 125, N-((5-chloro-6-((5-methylisoxazol-3-yl)methoxy)-1H-indol-2-yl)methyl)-1-(trifluoromethyl)cyclopropane-1-carboxamide], in that order: 198 nM and 145 nM. For `Cc1cc(CCOc2cc3[nH]c(CNC(=O)C4(C)CC4)cc3cc2Cl)no1` [Compound 99, N-((5-chloro-6-(2-(5-methylisoxazol-3-yl)ethoxy)-1H-indol-2-yl)methyl)-1-methylcyclopropane-1-carboxamide], in that order: 158 nM and 81 nM. Turning to `CC1(C(=O)NCc2cc3ccc(OCCc4cscn4)cc3[nH]2)CC1` [Compound 191, 1-methyl-N-((6-(2-(thiazol-4-yl)ethoxy)-1H-indol-2-yl)methyl)cyclopropane-1-carboxamide], the IC50 at human SLC6A19 and TMEM27 [1] is 1680 nM; on human SLC6A19 and TMEM27 [2] it was 1220 nM.

In the case of `CC1(C(=O)NCc2cc3cc(Cl)c(OCc4cccc(F)n4)cc3[nH]2)CC1` [Compound 32, N-((5-chloro-6-((6-fluoropyridin-2-yl)methoxy)-1H-indol-2-yl)methyl)-1-methylcyclopropane-1-carboxamide], the IC50 on human SLC6A19 and TMEM27 [1] stood at 133 nM; on human SLC6A19 and TMEM27 [2], 58 nM. For `Cc1cc(COc2c(Cl)cc3cc(CNC(=O)C4(C)CC4)[nH]c3c2Cl)no1` [Compound 343, N-((5,7-dichloro-6-((5-methylisoxazol-3-yl)methoxy)-1H-indol-2-yl)methyl)-1-methylcyclopropane-1-carboxamide], in that order: 3160 nM and 2480 nM. As for `Cc1cc2cc(CNC(=O)C3(C)CC3)[nH]c2cc1OCc1ccon1` [Compound 10, N-((6-(isoxazol-3-ylmethoxy)-5-methyl-1H-indol-2-yl)methyl)-1-methylcyclopropane-1-carboxamide], the IC50 at human SLC6A19 and TMEM27 [2] is 130 nM. For the molecule `CNC(=O)NCc1cc2cc(Cl)c(OCc3cocn3)cc2[nH]1` [Compound 111, 1-((5-chloro-6-(oxazol-4-ylmethoxy)-1H-indol-2-yl)methyl)-3-methylurea], the IC50 at human SLC6A19 and TMEM27 [2] came to 586 nM. On the same count and under the same terms, to `CC1(C(=O)NCc2cc3ccc(OCc4csnn4)cc3[nH]2)CC1` [Compound 170, N-((6-((1,2,3-thiadiazol-4-yl)methoxy)-1H-indol-2-yl)methyl)-1-methylcyclopropane-1-carboxamide] belongs 187 nM.
